Measured values taken from patent publication US20150290192A1, “INHIBITORS OF BRUTON'S TYROSINE KINASE” (HOFFMANN-LA ROCHE INC., priority 2012, published 2015).
pIC50: −log10 of the molar value.

How the values were obtained:
[1] = Pharmacokinetics in cynomolgus monkey; type: in vivo; conditions: Cyno
[2] = Pharmacokinetics in dog; type: in vivo
[3] = target: Bruton's Tyrosine Kinase (Homo sapiens, UniProt Q06187); experiment: Bruton's Tyrosine Kinase (BTK) inhibition TR-FRET competition assay; type: binding
Method: This BTK competition assay measures compound potency (IC50) for the inactivated state of Bruton's Tyrosine Kinase using FRET (Firster/Fluorescence Resonance Energy Transfer) technology. The BTK-Eu complex was incubated on ice one hour prior to use at a starting concentration of 50 nM BTK-Bioease™: 10 nM Eu-streptavidin (Perkin-Elmer Catalog#AD0062). The assay buffer consisted of 20 mM HEPES (pH 7.15), 0.1 mM DTT, 10 mM MgCl2, 0.5 mg/ml BSA with 3% Kinase Stabilizer (Fremont Biosolutions, Catalog #STB-K02). After 1 h, the reaction mixture from above was diluted 10 fold in assay buffer to make 5 nM BTK: InM Eu-Streptavidin complex (donor fluorophore). 18 l of a mixture of 0.11 nM BTK-Eu and 0.11 nM Kinase Tracer 178 (Invitrogen, Catalog #PV5593,) with BTK-Eu alone as no negative control, was then dispensed into 384-well flat bottom plates (Greiner, 784076). Compounds to be tested in assay were prepared as 10× concentrations and serial dilution in half-log increments was performed in DMSO so as to generate 10 point curves. To initiate the FRET reaction, compounds prepared as 10× stock in DMSO was added to the plates and the plates were incubated 18-24 h at 14° C.
After the incubation the plates were read on a BMG Pherastar Fluorescent plate reader (or equivalent) and used to measure the emission energy from the europium donor fluorophore (620 nm emission) and the FRET (665 nm emission). The negative control well values were averaged to obtain the mean minimum. The positive “no inhibitor” control wells were averaged to obtain the mean maximum. Percent of maximal FRET was calculated using following equation:
% max FRET=100×[(FSRcmpd−FSRmean min)/(FSRmean max−FSRmean min)]
where FSR=FRET Signal ratio. % Max FRET curves were plotted in Activity Base (Excel) and the IC50(%), hill slope, z′ and % CV were determined. The mean IC50 and standard deviation will be derived from duplicate curves (singlet inhibition curves from two independent dilutions) using Microsoft Excel.

[4] = Pharmacokinetics in mouse; type: in vivo
[5] = Micronization: particle size and polymorphic form; type: physicochemical
Method: 10.6 g of compound 1 was micronized in a Jet-O-Mizer jet mill at feed and grinding pressures of 90 psi. The micronized material thus obtained was analyzed by powder X-ray diffraction pattern and particle size distribution as shown in FIGS. 1 and 2 respectively. No change in polymorphic form was observed during the micronization process. Eighty percent of the particles were of size 5 μm or less with a mean particle size (d50%=2.88 μm) in the range suitable for inhalation delivery. The material was used for the in vivo experiment mOVA36.
8.6 g of 2-(6-tert-butyl-8-fluoro-1-oxophthalazin-2(1H)-yl)-4-(1-methyl-5-(5-(1-methylpiperidin-4-yl)pyridin-2-ylamino)-6-oxo-1,6-dihydropyridazin-3-yl)nicotinaldehyde was micronized in a Jet-O-Mizer jet mill at 80 psi. The mean particle size (d50%) was 3.05 μm with 90% particles ≦6 μm (FIG. 3). This material (30% w/w) and lactose (Lactohale LH 300, 70% w/w) were mixed in a Turbula mixer at 22 rpm for 15 minutes. The d50% and d90% particle size of the lactose ingredient were <5 μm and <10 μm, respectively (DFE Pharma specifications (#001/October 2011). The blend thus obtained was used for the in vivo experiment mOVA40, mPolylC-3-12 and mPolylC-5-12. See FIG. 3.

Chain of Bruton's Tyrosine Kinase (Q06187 whole entry): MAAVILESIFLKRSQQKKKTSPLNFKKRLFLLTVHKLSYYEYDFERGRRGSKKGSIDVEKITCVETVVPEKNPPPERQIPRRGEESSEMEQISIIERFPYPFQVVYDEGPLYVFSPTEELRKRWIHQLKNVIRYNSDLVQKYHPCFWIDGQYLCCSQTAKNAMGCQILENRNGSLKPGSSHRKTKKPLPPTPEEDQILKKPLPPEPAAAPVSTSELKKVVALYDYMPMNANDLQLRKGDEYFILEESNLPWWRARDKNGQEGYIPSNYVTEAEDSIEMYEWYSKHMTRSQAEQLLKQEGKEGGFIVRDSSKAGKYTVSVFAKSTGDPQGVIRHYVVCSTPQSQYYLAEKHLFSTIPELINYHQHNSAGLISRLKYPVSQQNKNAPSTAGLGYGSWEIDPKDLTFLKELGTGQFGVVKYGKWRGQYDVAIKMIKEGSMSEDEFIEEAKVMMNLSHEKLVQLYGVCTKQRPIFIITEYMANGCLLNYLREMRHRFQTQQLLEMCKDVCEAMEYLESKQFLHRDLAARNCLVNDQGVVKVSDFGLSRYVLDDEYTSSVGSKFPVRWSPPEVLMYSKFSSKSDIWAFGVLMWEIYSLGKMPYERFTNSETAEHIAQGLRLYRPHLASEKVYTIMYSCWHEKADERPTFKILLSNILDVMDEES

CL ([1]; 0.3 mg/kg (iv)): high
Oral Bioavailability ([1]; 0.3 (iv), 0.9 (po) mg/kg): low
bioavailability ([1]; cynomolgus monkey, plasma, 0.9 mg/kg, 0.3 (iv), 0.9 (po) mg/kg): 8%
clearance ([1]; cynomolgus monkey, plasma, 0.3 mg/kg (iv)): 38.9 mL/min/kg
CL ([2]; 1.0 mg/kg (iv)): high
Oral Bioavailability ([2]; 1.0 (iv), 1.0 (po) mg/kg): low
clearance ([2]; plasma, 1.0 mg/kg (iv)): 28.3 mL/min/kg
bioavailability ([2]; plasma, 1 mg/kg, 1.0 (iv), 1.0 (po) mg/kg): 1.5%
Btk inhibitor potency (FRET) [3]: very potent
pIC50 ([3]; inactivated state of BTK, 18-24 h at 14° C.): 9.40
CL ([4]; 1.0 mg/kg (iv)): moderate
Oral Bioavailability ([4]; 1.0 (iv), 10 (po) mg/kg): low
clearance ([4]; plasma, 1.0 mg/kg (iv)): 26 mL/min/kg
bioavailability ([4]; plasma, 10 mg/kg, 1.0 (iv), 10 (po) mg/kg): 12%
particle size of 90% particles ([5]; micronized at 80 psi, material for mOVA40 and mPolyIC): ≤ 6 μm
particles of size 5 μm or less ([5]; micronized at 90 psi, material for mOVA36): Eighty
mean particle size (d50%) ([5]; micronized in Jet-O-Mizer jet mill at 80 psi, material for mOVA40 and mPolyIC): 3.05 μm
mean particle size (d50%) ([5]; micronized in Jet-O-Mizer jet mill at 90 psi, material for mOVA36): 2.88 μm
change in polymorphic form during the micronization process ([5]; powder X-ray diffraction before and after micronization): No change
SMILES: CN1CCC(c2ccc(Nc3cc(-c4ccnc(-n5ncc6cc(C(C)(C)C)cc(F)c6c5=O)c4CO)nn(C)c3=O)nc2)CC1 [Compound 1, 6-tert-Butyl-8-fluoro-2-{3-hydroxymethyl-4-[1-methyl-5-(1′-methyl-1′,2′,3′,4′,5′,6′-hexahydro-[3,4′]bipyridinyl-6-ylamino)-6-oxo-1,6-dihydro-pyridazin-3-yl]-pyridin-2-yl}-2H-phthalazin-1-one]
